From patent US20220218707A1, “USE OF COMPOSITION OF IMATINIB OR DERIVATIVE THEREOF IN PREPARATION OF DRUG FOR PREVENTING, TREATING, AND CONTROLLING ADDICTION RELAPSE” (Wuhan University, priority 2019, published 2022)
Structures can show the parent of a compound that is named as a salt. Where two headings read alike, the source gives them in different places.

Columns and labels:
c-Kit [1] = target: T1, c-Kit (Rattus norvegicus, UniProt F7EWK5); conditions: acute ethanol administration
SD rats [2] = assay: Nicotine withdrawal symptoms (spontaneous activity); assay type: in vivo
Excerpt: Test instrument: Conditional place preference (CPP) test apparatus (the same as that in Example 19); and spontaneous activity detecting apparatus (developed by the Institute of Chinese Materia Medica, China Academy of Chinese Medical Sciences). The test was automatically controlled by a computer. The apparatus includes four spontaneous activity observation chamber, a video synthesizer, a video pattern sampling card, and analysis software. The system performs video tracking of the rat activity and automatically records the rat activity track and activity times. The spontaneous activity evaluation index is the total activity times in a certain period of time (such as 60 min), and an increase in the total activity times indicates an increase in spontaneous activity. […] In addition, a physiological saline+physiological saline group without nicotine treatment was used as the control group. […] After 60 min, a spontaneous activity detecting apparatus was used to detect the spontaneous activities.

SD rats [3] = tested on: SD rats
SD rats [4] = tested on: SD rats; remark: listed apart in the source
Excerpt: Groups: A total of 14 groups (n=10) were included.
The rest process was the same as that in Example 3.

SD rats [5] = conditions: for drug-seeking behavior and relapse after cocaine addiction: imatinib mesylate 20 and 30 mg/kg
[6] = Naloxone-precipitated withdrawal symptoms after morphine-induced CPP (jump times, body weight); conditions: imatinib mesylate 15, 30, and 45 mg/kg with morphine 5 mg/kg, naloxone 2 mg/kg s.c.; combination or compound preparation
SD rats [7] = conditions: imatinib mesylate 1, 5, 10, 20, or 30 mg/kg i.p.
SD rats [8] = assay: Development of high-sugar and high-fat food-induced CPP; assay type: in vivo
SD rats [9] = assay: Ethanol sensitization model; assay type: in vivo; conditions: imatinib mesylate 15, 20, or 30 mg/kg
SD rats [10] = tested on: SD rats; remark: listed apart in the source
SD rats [11] = tested on: SD rats; remark: listed apart in the source
SD rats [12] = tested on: SD rats; remark: listed apart in the source
SD rats [13] = conditions: imatinib mesylate 1, 5, 10, 20, and 30 mg/kg i.p.
SD rats [14] = conditions: direct administration; any dose of imatinib mesylate
SD rats [15] = assay: Morphine sensitization model (spontaneous activity); assay type: in vivo
SD rats [16] = tested on: SD rats; remark: listed apart in the source
SD rats [17] = conditions: for morphine tolerance and heat pain threshold in CFA rats: day 6 after model establishment
c-Kit [18] = target: T1, c-Kit; conditions: acute morphine 10 mg/kg s.c.; not in other brain regions
c-Kit [19] = target: T1, c-Kit; conditions: acute nicotine 0.5 mg/kg s.c.; not in other brain regions
[20] = imatinib mesylate 1, 5, and 10 mg/kg, ethanol 0.75 g/kg for training CPP
[21] = imatinib mesylate 1 and 5 mg/kg, ethanol 0.5 g/kg for training CPP
[22] = imatinib mesylate 10, 15, 20, and 30 mg/kg, ethanol 0.5 g/kg for training CPP
[23] = imatinib mesylate 15, 20, and 30 mg/kg, ethanol 0.75 g/kg for training CPP

T1 sequence (F7EWK5 26-978): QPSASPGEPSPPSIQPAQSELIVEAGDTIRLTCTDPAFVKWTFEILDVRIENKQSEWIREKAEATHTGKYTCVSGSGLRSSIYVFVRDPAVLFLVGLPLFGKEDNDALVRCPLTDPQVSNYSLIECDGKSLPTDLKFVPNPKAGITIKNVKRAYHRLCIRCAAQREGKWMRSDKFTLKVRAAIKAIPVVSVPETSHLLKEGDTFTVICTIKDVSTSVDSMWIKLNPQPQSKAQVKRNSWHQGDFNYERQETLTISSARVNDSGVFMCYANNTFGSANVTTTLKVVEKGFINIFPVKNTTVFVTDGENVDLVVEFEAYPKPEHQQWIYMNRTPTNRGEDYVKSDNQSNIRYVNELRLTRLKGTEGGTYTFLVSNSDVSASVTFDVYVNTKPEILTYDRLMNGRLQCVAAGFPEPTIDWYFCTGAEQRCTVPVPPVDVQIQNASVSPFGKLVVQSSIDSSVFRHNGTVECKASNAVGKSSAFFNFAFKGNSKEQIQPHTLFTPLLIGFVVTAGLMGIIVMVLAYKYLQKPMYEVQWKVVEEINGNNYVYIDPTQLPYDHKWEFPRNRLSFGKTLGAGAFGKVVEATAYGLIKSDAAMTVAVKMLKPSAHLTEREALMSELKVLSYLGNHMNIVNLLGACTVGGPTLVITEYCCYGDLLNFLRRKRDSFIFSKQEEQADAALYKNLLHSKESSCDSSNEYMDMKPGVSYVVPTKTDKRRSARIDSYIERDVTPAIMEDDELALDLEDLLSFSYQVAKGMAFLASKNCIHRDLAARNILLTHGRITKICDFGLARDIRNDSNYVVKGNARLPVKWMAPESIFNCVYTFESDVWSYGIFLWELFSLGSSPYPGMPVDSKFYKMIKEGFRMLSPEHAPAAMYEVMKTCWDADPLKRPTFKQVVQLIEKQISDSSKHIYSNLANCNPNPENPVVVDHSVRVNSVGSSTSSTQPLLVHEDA

SMILES: CCO [ethanol]
- activation of c-kit receptor in neurons in nucleus accumbens (c-Kit [1]): specifically activated

SMILES: Cc1ccc(NC(=O)c2ccc(CN3CCN(C)CC3)cc2)cc1Nc1nccc(-c2cccnc2)n1 [imatinib mesylate]
- nicotine withdrawal symptoms (spontaneous activities) (SD rats [2]; imatinib mesylate 10, 20, and 30 mg/kg, addiction trained by 0.25 mg/kg of nicotine): can differently alleviate the withdrawal symptoms
- nicotine withdrawal symptoms (spontaneous activities) (SD rats [2]; imatinib mesylate 20 and 30 mg/kg, addiction trained by 0.5 mg/kg of nicotine): can alleviate the withdrawal symptoms
- morphine tolerance (heat pain threshold) (SD rats [3]; 1, 5, and 10 mg/kg i.p., morphine 10 mg/kg s.c.): do not have this inhibitory effect
- morphine tolerance (heat pain threshold) (SD rats [3]; 20 and 30 mg/kg i.p., morphine 10 mg/kg s.c.): can prevent the development of CPP
- morphine tolerance (heat pain threshold) (SD rats [3]; 20 and 30 mg/kg i.p., morphine 10 mg/kg s.c., listed as Imatinib sulfonate): can significantly reduce the expression of morphine-induced tolerance
- minimum dose of imatinib mesylate preventing morphine tolerance (SD rats [3]; dose ratio to morphine 2:1 or greater): 10 mg/kg
- morphine tolerance (heat pain threshold) (SD rats [3]; imatinib mesylate 10, 20, and 30 mg/kg, tolerance induced by 5 mg/kg morphine): can prevent the development of morphine tolerance
- treatment and prevention of morphine tolerance (SD rats [3]; low dose of 5 mg/kg, rats): can be used in the treatment and prevention of morphine tolerance in rats
- CPP (drug-seeking behavior) after ethanol addiction (SD rats [4]; [20]): no obvious effect
- CPP (drug-seeking behavior) after ethanol addiction (SD rats [4]; [21]): no obvious effect
- CPP (drug-seeking behavior) after ethanol addiction (SD rats [4]; [22]): can significantly relieve CPP and prevent it from being primed
- CPP (drug-seeking behavior) after ethanol addiction (SD rats [4]; [23]): can significantly relieve CPP and prevent it from being primed
- priming (relapse) after cocaine addiction (SD rats [5]; direct administration of imatinib mesylate 20 and 30 mg/kg): the rats are still primed
- drug-seeking behavior and relapse after cocaine addiction (SD rats [5]; unconditioned stimulus cocaine 3 mg/kg): can prevent the drug-seeking behavior and relapse
- drug-seeking behavior and relapse after cocaine addiction (SD rats [5]; unconditioned stimulus cocaine 4 mg/kg): can only inhibit the drug-seeking behavior, and cannot prevent relapse
- morphine withdrawal symptoms (jump times, changes in body weight) [6]: can alleviate the withdrawal symptoms
- hind paw licking time, imatinib mesylate+physiological saline compared with physiological saline+physiological saline (SD rats [7]): no obvious changes
- hind paw licking time, imatinib mesylate+morphine compared with morphine+physiological saline (SD rats [7]; morphine 10 mg/kg s.c.): no obvious changes
- development of addiction to high-sugar and high-fat food (CPP) (SD rats [8]; imatinib mesylate 1, 5, and 10 mg/kg i.p.): no significant effect on the development of addiction to high-sugar and high-fat food
- development of addiction to high-sugar and high-fat food (CPP) (SD rats [8]; imatinib mesylate 20 and 30 mg/kg i.p.): can significantly inhibit the development of addiction to high-sugar and high-fat food
- development of ethanol sensitization (SD rats [9]; ethanol 0.75 g/kg for 5 consecutive days): the development of ethanol sensitization in rats is inhibited
- expression of ethanol sensitization (SD rats [9]; ethanol challenge on day 11): the expression of ethanol sensitization in rats is inhibited
- development of ethanol-induced CPP (SD rats [10]; [20]): no significant effect on the development of CPP
- development of ethanol-induced CPP (SD rats [10]; [21]): no significant effect on the development of CPP
- development of ethanol-induced CPP (SD rats [10]; [22]): can significantly relieve CPP
- development of ethanol-induced CPP (SD rats [10]; [23]): can significantly relieve CPP
- priming with high-sugar and high-fat food after 1 week (SD rats [11]; direct administration, all doses of imatinib mesylate): cannot prevent the rats from being primed
- food-seeking behavior (CPP) (SD rats [11]; imatinib mesylate 10, 20, and 30 mg/kg, substance cue, environmental cue or direct administration): can inhibit the food-seeking behavior
- CPP (drug-seeking behavior) after morphine addiction (SD rats [12]; imatinib mesylate 1, 5, and 10 mg/kg i.p., morphine 10 mg/kg for training CPP): no obvious effect
- CPP (drug-seeking behavior) after morphine addiction (SD rats [12]; imatinib mesylate 1 and 5 mg/kg i.p., morphine 5 mg/kg for training CPP): no obvious effect
- CPP (drug-seeking behavior) after morphine addiction (SD rats [12]; imatinib mesylate 10, 20, and 30 mg/kg i.p., morphine 5 mg/kg for training CPP): can significantly relieve CPP and prevent it from being primed
- CPP (drug-seeking behavior) after morphine addiction (SD rats [12]; imatinib mesylate 20 and 30 mg/kg i.p., morphine 10 mg/kg for training CPP): can significantly relieve CPP and prevent it from being primed
- HPT, imatinib mesylate+physiological saline compared with physiological saline+physiological saline (SD rats [13]): no obvious change
- heat pain threshold, imatinib mesylate+morphine compared with morphine+physiological saline (SD rats [13]; morphine 10 mg/kg s.c.): no obvious change
- gambling behavior (choice) (SD rats [14]): no significant effect
- expression of morphine sensitization (SD rats [15]; imatinib mesylate 30 mg/kg i.p. on day 11 before morphine 5 mg/kg challenge): the expression of morphine sensitization in rats is inhibited
- development of morphine sensitization (SD rats [15]; imatinib mesylate 30 mg/kg with morphine 10 mg/kg for 5 consecutive days): the development of morphine sensitization in rats is inhibited
- priming (relapse) after challenge with a small dose of ethanol (SD rats [16]; direct administration of imatinib mesylate): are all primed
- CPP after ethanol addiction, all treatment groups (SD rats [16]; imatinib mesylate 15 and 30 mg/kg, ethanol 0.75 g/kg for training CPP): can significantly reduce the CPP
- drug-seeking behavior and relapse after ethanol addiction (SD rats [16]; unconditioned stimulus ethanol 0.5 g/kg, imatinib mesylate 20 and 30 mg/kg): can only inhibit the drug-seeking behavior, and cannot prevent relapse
- morphine tolerance and heat pain threshold in CFA rats (SD rats [17]; imatinib mesylate 1, 5, and 10 mg/kg): have no this effect
- morphine tolerance and heat pain threshold in CFA rats (SD rats [17]; imatinib mesylate 20 and 30 mg/kg): can significantly prevent the development of morphine tolerance
- heat pain threshold, imatinib mesylate+morphine compared with morphine+physiological saline (SD rats [17]; days 4 and 5 after model establishment, morphine 10 mg/kg s.c.): no obvious change

SMILES: CNC1(C)C2CCC(C2)C1(C)C (centres unmarked) [mecamylamine]
- spontaneous activities of rats with nicotine addiction (SD rats [2]; mecamylamine 0.5 mg/kg, withdrawal symptoms aroused): the spontaneous activities decreases significantly

SMILES: CN1CC[C@]23c4c5ccc(O)c4O[C@H]2[C@@H](O)C=C[C@H]3[C@H]1C5 [morphine]
- activation of c-kit receptor and downstream signaling molecules in neurons in nucleus accumbens (c-Kit [18]): specifically activated

SMILES: CN1CCCC1c1cccnc1 (centres unmarked) [nicotine]
- activation of c-kit receptor and downstream signaling molecules in neurons in nucleus accumbens (c-Kit [19]): specifically activated
